Reference: patent publication US10449186B2, “Phenylethynyl-substituted benzenes and heterocycles for the treatment of cancer” (UNIVERSITY OF KENTUCKY RESEARCH FOUNDATION, priority 2017, dated 2019)
Counter-ions that a name gives are not always drawn. Like-named read-outs stand apart in the source and are kept apart here.

Key:
[1] = tested on: LS174T colon cancer cells; assay: LS174T cell proliferation assay; format: cell-based; set-up: effects on LS174T colon cancer cell proliferation (Table 3): unit not given here; conditions: for inhibition at 1 µM / inhibition at 10 µM / inhibition at 0.1 µM: Homo sapiens, LS174T
Method: Cell proliferation assay. LS174T cells were grown in RPMI medium (Mediatech) supplemented with 5% fetal bovine serum and 1% penicillin/streptomycin. For cell proliferation assays, 3×10^4 cells/well growing in 12-well plates were treated with DMSO or inhibitors. The cell numbers and viability were analyzed by Vi-Cell Cell Viability Analyzer after 4 days. The IC50 values were calculated with GraphPad Prim 5.

[2] = Table 1, 1 μM, read-out: inhibition of proliferation (%) of colon cancer LS174T cells
[3] = Table 1, 10 μM, read-out: inhibition of proliferation (%) of colon cancer LS174T cells
[4] = Table 2, 100 nM, read-out: inhibition of cell proliferation (%) of colon cancer LS174T cells
[5] = Table 2, 1 μM, read-out: inhibition of cell proliferation (%) of colon cancer LS174T cells
[6] = Table 2, 10 μM, read-out: inhibition of cell proliferation (%) of colon cancer LS174T cells
[7] = 1 μM, read-out: inhibition of LS174T colon cancer cell proliferation
[8] = read-out: inhibition of LS174T colon cancer cell proliferation
[9] = read-out: inhibition of cell proliferation (%) of colon cancer LS174T cells

SMILES	melting point	inhibition at 1 µM [1, 5]	inhibition at 10 µM [1, 6]	other results
CN1CCN(c2ncc(C#Cc3c(F)cccc3F)c3ccccc23)CC1 (as salt: hydrochloride) [Compound 5pp, 4-((2,6-Difluorophenyl)ethynyl)-1-(4-methylpiperazin-1-yl)isoquinoline]	70 to 72 °C			
CN(C)c1ccc(C#Cc2c(F)cccc2F)nc1 [Compound 5a, 6-((2,6-Difluorophenyl)ethynyl)-N,N-dimethylpyridin-3-amine]	120 to 122 °C	68.9 ± 1.3%	85.2 ± 3.8%	inhibition at 0.1 µM [1, 4]: 15.1 ± 7.4%
Fc1cccc(F)c1C#Cc1ccc(-n2cccc2)nc1 [Compound 5c, 5-((2,6-Difluorophenyl)ethynyl)-2-(1H-pyrrol-1-yl)pyridine]	121 to 123 °C			inhibition at 1 µM [1, 8]: > 75%; inhibition at 0.1 µM [1, 9]: 0%; inhibition at 1 µM [1, 9]: 80.5 ± 6.6%; inhibition at 10 µM [1, 9]: 95.3 ± 0.8%
CN(C)c1cnc(C#Cc2c(F)cccc2F)cn1 [Compound 5d, 5-((2,6-Difluorophenyl)ethynyl)-N,N-dimethylpyrazin-2-amine]	137 to 138 °C	22.9 ± 9.8%	91.6 ± 3%	
CN(C)c1ccc2cc(C#Cc3c(F)cccc3F)ccc2n1 [Compound 5ee, 6-((2,6-Difluorophenyl)ethynyl)-N,N-dimethylquinolin-2-amine]	142 to 144 °C			inhibition at 1 µM [1, 9]: 2 ± 11.9%; inhibition at 10 µM [1, 9]: 38.7 ± 4.3%
Cn1ccc2cc(C#Cc3c(F)cccc3F)ccc21 [Compound 5f, 5-((2,6-Difluorophenyl)ethynyl)-1-methyl-1H-indole]		77.7 ± 13.6%	95.2 ± 1%	inhibition at 1 µM [1, 7]: > 75%; inhibition at 0.1 µM [1, 4]: 3 ± 5.6%
CN(C)c1ccnc2ccc(C#Cc3c(F)cccc3F)cc12 [Compound 5ff, 6-((2,6-Difluorophenyl)ethynyl)-N,N-dimethylquinolin-4-amine]	118 to 120 °C			inhibition at 1 µM [1, 8]: > 75%; inhibition at 0.1 µM [1, 9]: 0%; inhibition at 1 µM [1, 9]: 81.3 ± 1.4%; inhibition at 10 µM [1, 9]: 95.5 ± 2%
Fc1cccc(F)c1C#Cc1cccc2[nH]ncc12 [Compound 5g, 4-((2,6-Difluorophenyl)ethynyl)-1H-indazole]	178 to 179 °C			inhibition at 1 µM [1, 9]: 19.8 ± 13.6%; inhibition at 10 µM [1, 9]: 96.2 ± 2%
Fc1cccc(F)c1C#Cc1ccc2[nH]ncc2c1 [Compound 5h, 5-((2,6-Difluorophenyl)ethynyl)-1H-indazole]	193 to 195 °C			inhibition at 1 µM [1, 9]: 17.6 ± 7.9%; inhibition at 10 µM [1, 9]: 82.9 ± 9.8%
Fc1cccc(F)c1C#Cc1ccc2cn[nH]c2c1 [Compound 5i, 6-((2,6-Difluorophenyl)ethynyl)-1H-indazole]	192 to 194 °C			inhibition at 1 µM [1, 8]: > 75%; inhibition at 1 µM [1, 9]: 81.5 ± 2.9%; inhibition at 10 µM [1, 9]: 97 ± 1.1%
Fc1cccc(F)c1C#Cc1cnc(Cl)c2ccccc12 [Compound 5kk, 1-Chloro-4-((2,6-difluorophenyl)ethynyl)isoquinoline]	145 to 146 °C			inhibition at 0.1 µM [1, 9]: 0.8 ± 36.1%; inhibition at 1 µM [1, 9]: 48.1 ± 18.1%; inhibition at 10 µM [1, 9]: 94 ± 0.5%
Fc1cccc(F)c1C#Cc1cnc2[nH]ccc2c1 [Compound 5l, 5-((2,6-Difluorephenyl)ethynyl)-1H-pyrrolo[2,3-b]pyridine]				inhibition of cell proliferation (%) of colon cancer LS174T cells ([1]; Table 2, 1 μM): 17.3 ± 12.0%; inhibition of cell proliferation (%) of colon cancer LS174T cells ([1]; Table 2, 10 μM): 77.9 ± 8.9%
Fc1ccc2ccnc(C#Cc3c(F)cccc3F)c2c1 [Compound 5ll, 1-((2,6-Difluorophenyl)ethynyl)-7-fluoroisoquinoline]	177 to 178 °C			inhibition at 0.1 µM [1, 9]: 0%; inhibition at 1 µM [1, 9]: 71.1 ± 3.5%; inhibition at 10 µM [1, 9]: 96.2 ± 0.1%
Fc1cccc(F)c1C#Cc1ccc2ccccc2n1 [Compound 5m, 2-((2,6-Difluorophenyl)ethynyl)quinoline]	127 to 129 °C			inhibition at 0.1 µM [1, 9]: 6.1 ± 27%; inhibition at 1 µM [1, 9]: 67.3 ± 13.6%; inhibition at 10 µM [1, 9]: 93.8 ± 1.7%
Nc1ccc2ncc(C#Cc3c(F)cccc3F)cc2c1 [Compound 5r, 3-((2,6-Ditfluorophenyl)ethynyl)quinolin-6-amine]				inhibition of cell proliferation (%) of colon cancer LS174T cells ([1]; Table 2, 10 μM): 9.2 ± 15.7%
CN(C)c1ccc(C#Cc2c(F)cncc2F)cc1 [Compound 7d, 4-((3,5-Difluoropyridin-4-yl)ethynyl)-N,N-dimethylaniline]				effects on LS174T colon cancer cell proliferation (Table 3) ([1]; 30 nM): 16.7; effects on LS174T colon cancer cell proliferation (Table 3) ([1]; 100 nM): 20.4; effects on LS174T colon cancer cell proliferation (Table 3) ([1]; 300 nM): 60.6

Continued, in another order:

melting point	SMILES	inhibition at 1 µM [1, 5]	inhibition at 10 µM [1, 6]	other results
148 to 150 °C	O=C1CCCCN1c1ccc(C#Cc2c(F)cccc2F)cc1 [Compound 4a, 1-(4-((2,6-Difluorophenyl)ethynyl)phenyl)piperidin-2-one]			inhibition at 1 µM [1, 2]: 6.4%; inhibition at 10 µM [1, 3]: 68.1%
144 to 145 °C	Fc1cccc(F)c1C#Cc1ccc(N2CCOCC2)cc1 [Compound 4b, 4-(4-((2,6-Difluorophenyl)ethynyl)phenyl)morpholine]			inhibition at 1 µM [1, 2]: 13%; inhibition at 10 µM [1, 3]: 32.1%
126 to 128 °C	CN1CCN(c2ccc(C#Cc3c(F)cccc3F)cc2)CC1 [Compound 4c, 1-(4-((2,6-Difluorophenyl)ethynyl)phenyl)-4-methylpiperazine]			inhibition at 1 µM [1, 2]: 19.9%; inhibition at 10 µM [1, 3]: 99.6%
122 to 124 °C	Fc1cccc(F)c1C#Cc1ccc(-n2cccc2)cc1 [Compound 4d, 1-(4-((2,6-Difluorophenyl)ethynyl)phenyl)-1H-pyrrole]			activity in a cell proliferation assay ([1]; 100 nM): considerably diminished activity; activity in a cell proliferation assay ([1]; 1 μM): comparable to 4-((2,6-difluorophenyl)ethynyl)-N,N-dimethylaniline (2); inhibition at 0.1 µM ([1]; Table 1, 100 nM, read-out: inhibition of proliferation (%) of colon cancer LS174T cells): 11%; inhibition at 1 µM [1, 2]: 77.5%; inhibition at 10 µM [1, 3]: 96.7%
124 to 126 °C	Cc1ccc(C)n1-c1ccc(C#Cc2c(F)cccc2F)cc1 [Compound 4e, 1-(4-((2,6-Difluorophenyl)ethynyl)phenyl)-2,5-dimethyl-1H-pyrrole]			inhibition at 1 µM [1, 2]: 20.9%; inhibition at 10 µM [1, 3]: 78.8%
120 to 122 °C	Fc1cccc(F)c1C#Cc1ccc2nccc(Cl)c2c1 [Compound 5aa, 4-Chloro-6-((2,6-difluorophenyl)ethynyl)quinoline]	43.8 ± 10.8%	89.7 ± 4.3%	
110 to 112 °C	CN(C)c1ccc(C#Cc2c(F)cccc2F)cn1 [Compound 5b, 5-((2,6-Difluorophenyl)ethynyl)-N,N-dimethylpyridin-2-amine]	77.9 ± 7%	83.6 ± 7.8%	inhibition at 1 µM [1, 7]: > 75%; inhibition at 0.1 µM [1, 4]: 0%
148 to 150 °C	Fc1cccc(F)c1C#Cc1ccc2c(Cl)ccnc2c1 [Compound 5bb, 4-Chloro-7-((2,6-difluorophenyl)ethynyl)quinoline]	23.1 ± 8.3%	70.8 ± 4.8%	
220 to 222 °C	Nc1ccnc2ccc(C#Cc3c(F)cccc3F)cc12 [Compound 5cc, 6-((2,6-Difluorophenyl)ethynyl)quinolin-4-amine]	66.2 ± 3.1%	93.9 ± 0.4%	inhibition at 0.1 µM [1, 4]: 0%
219 to 221 °C	Nc1ccnc2cc(C#Cc3c(F)cccc3F)ccc12 [Compound 5dd, 7-((2,6-Difluorophenyl)ethynyl)quinolin-4-amine]	23.6 ± 2.5%	97.7 ± 2.2%	
131 to 133 °C	Fc1cccc(F)c1C#Cc1ccc2[nH]ccc2c1 [Compound 5e, 5-((2,6-Difluorophenyl)ethynyl)-1H-indole]	52.9 ± 5.9%	91.5 ± 3.5%	
120 to 122 °C	Fc1cccc(F)c1C#Cc1nccc2ccccc12 [Compound 5gg, 1-((2,6-Difluorophenyl)ethynyl)isoquinoline]	35.4 ± 15%	96.7 ± 0.2%	
102 to 104 °C	Fc1cccc(F)c1C#Cc1cncc2ccccc12 [Compound 5hh, 4-((2,6-Difluorophenyl)ethynyl)isoquinoline]	16.5 ± 2.1%	87.9 ± 1%	
115 to 117 °C	Fc1cccc(F)c1C#Cc1cccc2cnccc12 [Compound 5ii, 5-((2,6-Difluorophenyl)ethynyl)isoquinoline]	64.2 ± 6.1%	93.6 ± 0.5%	
107 to 109 °C	Cn1ncc2cc(C#Cc3c(F)cccc3F)ccc21 [Compound 5j, 5-((2,6-difluorophenyl)ethynyl)-1-methyl-1H-indazole]	58.4 ± 9.6%	94.6 ± 3.5%	inhibition at 0.1 µM [1, 4]: 0%
97 to 99 °C	Fc1cccc(F)c1C#Cc1ccc2cnccc2c1 [Compound 5jj, 6-((2,6-difluorophenyl)ethynyl)isoquinoline]	11.6 ± 21.3%	82.4 ± 10.2%	
117 to 119 °C	Cn1ncc2ccc(C#Cc3c(F)cccc3F)cc21 [Compound 5k, 6-((2,6-Difluorophenyl)ethynyl)-1-methyl-1H-indazole]	85.9 ± 5.4%	98.1 ± 0.4%	inhibition at 1 µM [1, 7]: > 75%; inhibition at 0.1 µM [1, 4]: 0%
